Source: ChEMBL document CHEMBL4715703, “Engineering of a Novel Simplified Human Insulin-Like Peptide 5 Agonist” (J Med Chem, 2016)
Where a SMILES comes first, the peptide text is derived from it. Bridges are numbered along the chain shown (N, C = ends). Roman numbers before positions name the chains, in order.

What was measured:
[1] = target: T1, Relaxin-3 receptor 2 (Homo sapiens, UniProt Q8TDU9); test: Agonist activity at human RXFP4 expressed in CHO-K1 cells assessed as reduction in forskolin-induced cAMP production by pCRE beta-galactosidase reporter assay; type: functional, cell-based
[2] = target: T1, Relaxin-3 receptor 2; test: Displacement of europium-labeled Eu(A)-mINSL5 from human RXFP4 expressed in CHO-K1 cells; type: cell-based

T1 sequence (Q8TDU9 whole entry): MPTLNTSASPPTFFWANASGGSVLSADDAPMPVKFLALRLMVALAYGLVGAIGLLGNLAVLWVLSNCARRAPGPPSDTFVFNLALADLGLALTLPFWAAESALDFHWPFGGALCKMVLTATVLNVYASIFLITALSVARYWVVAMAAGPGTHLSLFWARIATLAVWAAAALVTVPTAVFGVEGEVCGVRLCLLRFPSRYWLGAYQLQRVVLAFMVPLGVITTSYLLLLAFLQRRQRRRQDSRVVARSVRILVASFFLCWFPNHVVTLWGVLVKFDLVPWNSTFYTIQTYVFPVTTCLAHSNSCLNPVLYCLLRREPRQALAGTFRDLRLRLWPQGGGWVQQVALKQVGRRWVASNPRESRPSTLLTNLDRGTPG

| SMILES | EC50 [1] [nM] | Ki [2] [nM] |
| --- | --- | --- |
| CC[C@H](C)[C@@H]1NC(=O)[C@H](Cc2ccc(O)cc2)NC(=O)[C@H]([C@@H](C)CC)NC(=O)[C@H](C(C)C)NC(=O)[C@H]([C@@H](C)O)NC(=O)[C@H](CCCNC(=N)N)NC(=O)[C@H](C(C)C)NC(=O)[C@H](Cc2ccc(O)cc2)NC(=O)[C@H](CC(=O)O)NC(=O)[C@H](CC(C)C)NC(=O)CNC(=O)[C@@H](NC(=O)[C@H](CC(C)C)NC(=O)[C@H](CCCCN)NC(=O)[C@@H](NC(=O)[C@@H](NC(=O)[C@H](CCC(N)=O)NC(=O)[C@H](CCCNC(=N)N)NC(=O)[C@@H](N)CO)[C@@H](C)O)C(C)C)CSSC[C@@H]2NC(=O)[C@@H](NC(=O)[C@H](CC(C)C)NC(=O)[C@@H](NC(=O)[C@H](CCC(N)=O)NC(=O)[C@H](CC(C)C)NC(=O)[C@H](CC(=O)O)NC(=O)C3CCC(=O)N3)[C@@H](C)O)CSSC[C@@H](NC(=O)CNC(=O)[C@H](CC(=O)O)NC(=O)[C@H]([C@@H](C)O)NC2=O)C(=O)N[C@H](CO)C(=O)N[C@H](CCSC)C(=O)N[C@H]([C@H](C)O)C(=O)N[C@H](CC(=O)O)C(=O)N[C@H](CC(C)C)C(=O)N[C@H](CO)C(=O)N[C@H](C)C(=O)N[C@H](CC(C)C)C(=O)N[C@@H](C(=O)O)CSSC[C@H](C(=O)N[C@@H](C)C(=O)N[C@@H](CO)C(=O)N[C@@H](CO)C(=O)N[C@@H](CCCNC(=N)N)C(=O)N[C@@H](Cc2c[nH]c3ccccc23)C(=O)O)NC1=O (some centres undefined) | 2.75 |  |
| CC[C@H](C)[C@@H]1NC(=O)[C@H](C(C)C)NC(=O)[C@H]([C@@H](C)O)NC(=O)[C@H](CCCNC(=N)N)NC(=O)[C@H](C(C)C)NC(=O)[C@H](Cc2ccc(O)cc2)NC(=O)[C@H](CC(=O)O)NC(=O)[C@H](CC(C)C)NC(=O)CNC(=O)[C@@H](NC(=O)[C@H](CC(C)C)NC(=O)[C@H](CCCCN)NC(=O)[C@@H](NC(=O)[C@@H](NC(=O)[C@H](CCC(N)=O)NC(=O)[C@H](CCCNC(=N)N)NC(=O)[C@@H](N)CO)[C@@H](C)O)C(C)C)CSSC[C@@H]2NC(=O)[C@@H](NC(=O)[C@H](CC(C)C)NC(=O)[C@H](C)NC(=O)[C@H](CCC(N)=O)NC(=O)[C@H](CC(C)C)NC(=O)[C@H](CC(=O)O)NC(=O)[C@@H](N)CCCNC(=N)N)CSSC[C@H](NC(=O)CNC(=O)[C@H](CCC(=O)O)NC(=O)[C@H](CCCNC(=N)N)NC2=O)C(=O)N[C@@H](CO)C(=O)N[C@@H](CCSC)C(=O)N[C@@H](CCCCN)C(=O)N[C@@H](CCC(=O)O)C(=O)N[C@@H](CC(C)C)C(=O)N[C@@H](CO)C(=O)N[C@@H]([C@@H](C)O)C(=O)N[C@@H](CC(C)C)C(=O)N[C@H](C(=O)O)CSSC[C@@H](C(=O)N[C@@H](C)C(=O)N[C@@H](CO)C(=O)N[C@@H](CO)C(=O)N[C@@H](CCCNC(=N)N)C(=O)N[C@@H](Cc2c[nH]c3ccccc23)C(=O)O)NC(=O)[C@H]([C@@H](C)CC)NC(=O)[C@@H](Cc2ccc(O)cc2)NC1=O | 0.51 | 1.58 |
| CC[C@H](C)[C@@H]1NC(=O)[C@H](Cc2ccc(O)cc2)NC(=O)[C@H]([C@@H](C)CC)NC(=O)[C@H](C(C)C)NC(=O)[C@H]([C@@H](C)O)NC(=O)[C@H](CCCNC(=N)N)NC(=O)[C@H]([C@@H](C)CC)NC(=O)[C@H](Cc2ccc(O)cc2)NC(=O)[C@H](CCC(=O)O)NC(=O)[C@H](CC(C)C)NC(=O)CNC(=O)[C@@H](NC(=O)[C@H](CC(C)C)NC(=O)[C@H](CCCNC(=N)N)NC(=O)[C@@H](NC(=O)[C@H](CO)NC(=O)[C@H](CCC(=O)O)NC(=O)[C@@H](N)CCCCN)C(C)C)CSSC[C@H](N)C(=O)N[C@@H](CCCNC(=N)N)C(=O)N[C@@H](CC(=O)O)C(=O)NCC(=O)N[C@@H](C)C(=O)N[C@@H](CO)C(=O)N[C@@H](CCSC)C(=O)N[C@@H](CCCCN)C(=O)N[C@@H](CC(=O)O)C(=O)N[C@@H](CC(C)C)C(=O)N[C@@H](CO)C(=O)N[C@@H](C)C(=O)N[C@@H](CC(C)C)C(=O)N[C@H](C(=O)O)CSSC[C@@H](C(=O)N[C@@H](C)C(=O)N[C@@H](CO)C(=O)N[C@@H](CO)C(=O)N[C@@H](CCCNC(=N)N)C(=O)N[C@@H](Cc2c[nH]c3ccccc23)C(=O)O)NC1=O (I: H-KESVRLCGLEYIRTVIYICASSRW-OH / II: H-CRDGASMKDLSALC-OH; disulfide I:7-II:1, I:19-II:14) | 39.8 | 23.4 |
| CC[C@H](C)[C@@H]1NC(=O)[C@H](Cc2ccc(O)cc2)NC(=O)[C@H]([C@@H](C)CC)NC(=O)[C@H](C(C)C)NC(=O)[C@H]([C@@H](C)O)NC(=O)[C@H](CCCNC(=N)N)NC(=O)[C@H]([C@@H](C)CC)NC(=O)[C@H](Cc2ccc(O)cc2)NC(=O)[C@H](CCC(=O)O)NC(=O)[C@H](CC(C)C)NC(=O)CNC(=O)[C@@H](NC(=O)[C@H](CC(C)C)NC(=O)[C@H](CCCNC(=N)N)NC(=O)[C@@H](NC(=O)[C@H](CO)NC(=O)[C@H](CCC(=O)O)NC(=O)[C@@H](N)CCCCN)C(C)C)CSSC[C@H](N)C(=O)N[C@@H](CCCNC(=N)N)C(=O)N[C@@H](CC(=O)O)C(=O)NCC(=O)N[C@@H](C)C(=O)N[C@@H](CO)C(=O)N[C@@H](CCSC)C(=O)N[C@@H]([C@@H](C)O)C(=O)N[C@@H](CC(=O)O)C(=O)N[C@@H](CC(C)C)C(=O)N[C@@H](CO)C(=O)N[C@@H](C)C(=O)N[C@@H](CC(C)C)C(=O)N[C@H](C(=O)O)CSSC[C@@H](C(=O)N[C@@H](C)C(=O)N[C@@H](CO)C(=O)N[C@@H](CO)C(=O)N[C@@H](CCCNC(=N)N)C(=O)N[C@@H](Cc2c[nH]c3ccccc23)C(=O)O)NC1=O (I: H-KESVRLCGLEYIRTVIYICASSRW-OH / II: H-CRDGASMTDLSALC-OH; disulfide I:7-II:1, I:19-II:14) | 603 | 912 |
| CC[C@H](C)[C@@H]1NC(=O)[C@H](Cc2ccc(O)cc2)NC(=O)[C@H]([C@@H](C)CC)NC(=O)[C@H](C(C)C)NC(=O)[C@H]([C@@H](C)O)NC(=O)[C@H](CCCNC(=N)N)NC(=O)[C@H]([C@@H](C)CC)NC(=O)[C@H](Cc2ccc(O)cc2)NC(=O)[C@H](CCC(=O)O)NC(=O)[C@H](CC(C)C)NC(=O)CNC(=O)[C@@H](NC(=O)[C@H](CC(C)C)NC(=O)[C@H](CCCNC(=N)N)NC(=O)[C@@H](NC(=O)[C@H](CO)NC(=O)[C@H](CCC(=O)O)NC(=O)[C@@H](N)CCCCN)C(C)C)CSSC[C@H](N)C(=O)N[C@@H](CCCNC(=N)N)C(=O)N[C@@H](CCC(=O)O)C(=O)NCC(=O)N[C@@H](C)C(=O)N[C@@H](CO)C(=O)N[C@@H](CCSC)C(=O)N[C@@H](CCCCN)C(=O)N[C@@H](CCC(=O)O)C(=O)N[C@@H](CC(C)C)C(=O)N[C@@H](CO)C(=O)N[C@@H]([C@@H](C)O)C(=O)N[C@@H](CC(C)C)C(=O)N[C@H](C(=O)O)CSSC[C@@H](C(=O)N[C@@H](C)C(=O)N[C@@H](CO)C(=O)N[C@@H](CO)C(=O)N[C@@H](CCCNC(=N)N)C(=O)N[C@@H](Cc2c[nH]c3ccccc23)C(=O)O)NC1=O (I: H-KESVRLCGLEYIRTVIYICASSRW-OH / II: H-CREGASMKELSTLC-OH; disulfide I:7-II:1, I:19-II:14) | 15.1 | 22.4 |
